From patent US10479780B2, “Aminopyrazole derivatives” (Chugai Seiyaku Kabushiki Kaisha, priority 2015, dated 2019)

Key:
Format in all cases: biochemical
human Yes1 enzyme = biological target: T1, human Yes1 enzyme (Homo sapiens, UniProt P07947); experiment: Yes1 enzyme inhibitory activity (time-resolved fluorometry, biotinylated peptide phosphorylation); conditions: biotinylated peptide phosphorylation, read-out: YES_IC50
T1 construct: made in house
Outline: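 Inhibition was expressed against a compound-free control to give IC50, using TR-FRET read-out (Eu-cryptate anti-pTyr antibody, streptavidin-XL665).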

human Src enzyme = biological target: T2, human Src enzyme (Homo sapiens, UniProt P12931); experiment: Src enzyme inhibitory activity (time-resolved fluorometry, biotinylated peptide phosphorylation); conditions: biotinylated peptide phosphorylation, read-out: SRC_IC50
T2 construct: purchased Carna Biosciences, Inc. 08-173
Outline: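 Compounds were tested for blocking tyrosine phosphorylation of a biotinylated peptide substrate by recombinant human Src. Phosphorylated product was quantified by time-resolved fluorometry using europium cryptate and XL665 conjugates, and IC50 was calculated against the compound-free control.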

human Lck enzyme = biological target: T3, human Lck enzyme (Homo sapiens, UniProt P06239); experiment: Lck enzyme inhibitory activity (time-resolved fluorometry, biotinylated peptide phosphorylation); conditions: biotinylated peptide phosphorylation, read-out: LCK_IC50
T3 construct: purchased Carna Biosciences, Inc. 08-170
Outline: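 Readout pairs a europium cryptate-labelled anti-phosphotyrosine antibody with XL665-streptavidin, measured by time-resolved fluorescence. IC50 derived from percent inhibition against untreated controls.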

T3 sequence (P06239 whole entry): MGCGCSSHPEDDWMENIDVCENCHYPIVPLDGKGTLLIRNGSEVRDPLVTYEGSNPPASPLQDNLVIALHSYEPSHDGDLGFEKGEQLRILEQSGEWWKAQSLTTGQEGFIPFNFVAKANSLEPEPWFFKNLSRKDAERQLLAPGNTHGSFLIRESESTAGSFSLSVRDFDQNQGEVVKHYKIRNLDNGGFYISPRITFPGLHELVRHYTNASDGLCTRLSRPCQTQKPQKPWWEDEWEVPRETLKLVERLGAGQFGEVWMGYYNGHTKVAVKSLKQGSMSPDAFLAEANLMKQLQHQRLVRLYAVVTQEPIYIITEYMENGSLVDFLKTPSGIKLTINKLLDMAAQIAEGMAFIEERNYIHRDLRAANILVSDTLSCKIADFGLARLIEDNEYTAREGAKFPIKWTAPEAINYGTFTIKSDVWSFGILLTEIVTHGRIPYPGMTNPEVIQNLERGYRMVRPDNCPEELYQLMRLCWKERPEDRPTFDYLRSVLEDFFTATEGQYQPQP
T2 sequence (P12931 whole entry): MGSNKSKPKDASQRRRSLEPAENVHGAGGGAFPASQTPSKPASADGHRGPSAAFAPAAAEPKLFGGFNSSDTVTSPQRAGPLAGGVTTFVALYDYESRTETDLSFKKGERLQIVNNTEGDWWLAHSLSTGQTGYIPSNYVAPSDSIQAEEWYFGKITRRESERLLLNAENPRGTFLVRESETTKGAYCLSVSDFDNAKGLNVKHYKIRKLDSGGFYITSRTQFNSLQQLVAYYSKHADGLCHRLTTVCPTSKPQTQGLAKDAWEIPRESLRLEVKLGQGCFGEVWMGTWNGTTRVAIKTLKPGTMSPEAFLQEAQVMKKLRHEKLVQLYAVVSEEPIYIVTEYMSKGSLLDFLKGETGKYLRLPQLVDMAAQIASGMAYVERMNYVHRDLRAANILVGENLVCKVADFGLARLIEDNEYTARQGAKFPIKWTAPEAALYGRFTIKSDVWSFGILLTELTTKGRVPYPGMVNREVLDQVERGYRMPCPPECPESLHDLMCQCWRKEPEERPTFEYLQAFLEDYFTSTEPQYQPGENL
T1 sequence (P07947 whole entry): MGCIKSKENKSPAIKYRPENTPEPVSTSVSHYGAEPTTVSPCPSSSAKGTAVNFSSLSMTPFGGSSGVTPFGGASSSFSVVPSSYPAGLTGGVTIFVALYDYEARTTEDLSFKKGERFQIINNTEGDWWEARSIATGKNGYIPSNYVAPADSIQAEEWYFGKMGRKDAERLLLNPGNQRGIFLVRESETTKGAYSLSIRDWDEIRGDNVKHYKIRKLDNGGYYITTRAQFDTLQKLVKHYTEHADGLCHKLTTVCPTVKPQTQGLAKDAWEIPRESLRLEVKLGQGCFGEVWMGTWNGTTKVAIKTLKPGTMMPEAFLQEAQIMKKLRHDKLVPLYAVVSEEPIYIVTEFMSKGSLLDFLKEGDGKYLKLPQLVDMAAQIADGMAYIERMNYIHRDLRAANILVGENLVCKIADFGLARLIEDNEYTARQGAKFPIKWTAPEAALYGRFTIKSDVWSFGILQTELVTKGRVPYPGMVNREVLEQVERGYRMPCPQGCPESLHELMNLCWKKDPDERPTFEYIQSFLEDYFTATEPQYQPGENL

| SMILES | IC50 (human Yes1 enzyme) [nM] | IC50 (human Src enzyme) [nM] | IC50 (human Lck enzyme) [nM] |
| --- | --- | --- | --- |
| Cc1cc(Oc2ccccc2F)ccc1-n1ncc(C(=O)c2cc3cc(OCCN4[C@@H]5CC[C@H]4COC5)c(NS(C)(=O)=O)cc3[nH]2)c1N [Example 4-24-039, N-[2-[5-amino-1-[4-(2-fluorophenoxy)-2-methylphenyl]pyrazole-4-carbonyl]-5-[2-[(1S,5R)-3-oxa-8-azabicyclo[3.2.1]octan-8-yl]ethoxy]-1H-indol-6-yl]methanesulfonamide] | 0.46 | 8.3 | 2.8 |
| Cc1cc(Oc2ccccc2F)ncc1-n1ncc(C(=O)c2cc3cc(OCC(F)F)c(N4CCCS4(=O)=O)cc3[nH]2)c1N [Example 4-25-001, {5-amino-1-[6-(2-fluorophenoxy)-4-methylpyridin-3-yl]pyrazol-4-yl}-[5-(2,2-difluoroethoxy)-6-(1,1-dioxo-1,2-thiazolidin-2-yl)-1H-indol-2-yl]methanone] | 1.6 | 29 | 9.6 |
| Cc1cc(Oc2ccccc2F)ccc1-n1ncc(C(=O)c2cc3cc(OC(F)F)c(N4CCCS4(=O)=O)cc3[nH]2)c1N [Example 4-25-002, [5-amino-1-[4-(2-fluorophenoxy)-2-methylphenyl]pyrazol-4-yl]-[5-(difluoromethoxy)-6-(1,1-dioxo-1,2-thiazolidin-2-yl)-1H-indol-2-yl]methanone] | 3.1 | 37 | 15 |
| Cc1cc(Oc2ccccc2F)cc(F)c1-n1ncc(C(=O)c2cc3cc(OC(F)F)c(N4CCCS4(=O)=O)cc3[nH]2)c1N [Example 4-25-003, [5-amino-1-[2-fluoro-4-(2-fluorophenoxy)-6-methylphenyl]pyrazol-4-yl]-[5-(difluoromethoxy)-6-(1,1-dioxo-1,2-thiazolidin-2-yl)-1H-indol-2-yl]methanone] | 3.9 | 130 | 19 |
| Cc1cc(Oc2ccccc2F)ncc1-n1ncc(C(=O)c2cc3cc(OC(F)F)c(N4CCCS4(=O)=O)cc3[nH]2)c1N [Example 4-25-004, [5-amino-1-[6-(2-fluorophenoxy)-4-methylpyridin-3-yl]pyrazol-4-yl]-[5-(difluoromethoxy)-6-(1,1-dioxo-1,2-thiazolidin-2-yl)-1H-indol-2-yl]methanone] | 1 | 48 | 8.7 |
| Cc1cc(Oc2c(F)cccc2F)ncc1-n1ncc(C(=O)c2cc3cc(OC(F)F)c(N4CCCS4(=O)=O)cc3[nH]2)c1N [Example 4-25-005, [5-amino-1-[6-(2,6-difluorophenoxy)-4-methylpyridin-3-yl]pyrazol-4-yl]-[5-(difluoromethoxy)-6-(1,1-dioxo-1,2-thiazolidin-2-yl)-1H-indol-2-yl]methanone] | 3.9 | 53 | 11 |
| Cc1cc(Oc2ccccc2F)ccc1-n1ncc(C(=O)c2cc3cc(N4CCOCC4)c(N4CCCS4(=O)=O)cc3[nH]2)c1N [Example 4-25-006, [5-amino-1-[4-(2-fluorophenoxy)-2-methylphenyl]pyrazol-4-yl]-[6-(1,1-dioxo-1,2-thiazolidin-2-yl)-5-morpholin-4-yl-1H-indol-2-yl]methanone] | 1.1 | 18 | 9 |
| Cc1cc(Oc2ccccc2F)ncc1-n1ncc(C(=O)c2cc3cc(N4CCOCC4)c(N4CCCS4(=O)=O)cc3[nH]2)c1N [Example 4-25-007, [5-amino-1-[6-(2-fluorophenoxy)-4-methylpyridin-3-yl]pyrazol-4-yl]-[6-(1,1-dioxo-1,2-thiazolidin-2-yl)-5-morpholin-4-yl-1H-indol-2-yl]methanone] | 1.1 | 23 | 5.2 |
| Cc1cc(Oc2c(F)cccc2F)ncc1-n1ncc(C(=O)c2cc3cc(N4CCOCC4)c(N4CCCS4(=O)=O)cc3[nH]2)c1N [Example 4-25-008, [5-amino-1-[6-(2,6-difluorophenoxy)-4-methylpyridin-3-yl]pyrazol-4-yl]-[6-(1,1-dioxo-1,2-thiazolidin-2-yl)-5-morpholin-4-yl-1H-indol-2-yl]methanone] | 1.5 | 22 | 8.2 |
| Cc1cc(Oc2ccccc2F)ccc1-n1ncc(C(=O)c2cc3cc(OCC(F)F)c(N4CCCS4(=O)=O)cc3[nH]2)c1N [Example 4-25-009, [5-amino-1-[4-(2-fluorophenoxy)-2-methylphenyl]pyrazol-4-yl]-[5-(2,2-difluoroethoxy)-6-(1,1-dioxo-1,2-thiazolidin-2-yl)-1H-indol-2-yl]methanone] | 3.5 | 32 | 18 |
| Cc1cc(Oc2ccccc2F)cc(F)c1-n1ncc(C(=O)c2cc3cc(OCC(F)F)c(N4CCCS4(=O)=O)cc3[nH]2)c1N [Example 4-25-010, [5-amino-1-[2-fluoro-4-(2-fluorophenoxy)-6-methylphenyl]pyrazol-4-yl]-[5-(2,2-difluoroethoxy)-6-(1,1-dioxo-1,2-thiazolidin-2-yl)-1H-indol-2-yl]methanone] | 1.7 | 16 | 7.4 |
| Cc1cc(Oc2c(F)cccc2F)ncc1-n1ncc(C(=O)c2cc3cc(OCC(F)F)c(N4CCCS4(=O)=O)cc3[nH]2)c1N [Example 4-25-011, [5-amino-1-[6-(2,6-difluorophenoxy)-4-methylpyridin-3-yl]pyrazol-4-yl]-[5-(2,2-difluoroethoxy)-6-(1,1-dioxo-1,2-thiazolidin-2-yl)-1H-indol-2-yl]methanone] | 1.4 | 11 | 4.1 |
| Cc1cc(Oc2ccccc2F)ccc1-n1ncc(C(=O)c2cc3cc(OCCN4CCOCC4)c(N4CCCS4(=O)=O)cc3[nH]2)c1N [Example 4-25-012, [5-amino-1-[4-(2-fluorophenoxy)-2-methylphenyl]pyrazol-4-yl]-[6-(1,1-dioxo-1,2-thiazolidin-2-yl)-5-(2-morpholin-4-ylethoxy)-1H-indol-2-yl]methanone] | 0.35 | 3 | 2.1 |
| Cc1cc(Oc2ccccc2F)ncc1-n1ncc(C(=O)c2cc3cc(OCC(F)F)c(N4CCCC4=O)cc3[nH]2)c1N [Example 4-25-013, 1-{2-{5-amino-1-[6-(2-fluorophenoxy)-4-methylpyridin-3-yl]pyrazole-4-carbonyl}-5-(2,2-difluoroethoxy)-1H-indol-6-yl}pyrrolidin-2-one] | 1 | 16 | 4 |
| Cc1cc(Oc2ccccc2F)ncc1-n1ncc(C(=O)c2cc3cc(OC(F)F)c(N4CCCC4=O)cc3[nH]2)c1N [Example 4-25-014, 1-[2-[5-amino-1-[6-(2-fluorophenoxy)-4-methylpyridin-3-yl]pyrazole-4-carbonyl]-5-(difluoromethoxy)-1H-indol-6-yl]pyrrolidin-2-one] | 1.1 | 26 | 2.2 |
| Cc1cc(Oc2ccccc2F)cc(F)c1-n1ncc(C(=O)c2cc3cc(OC(F)F)c(N4CCCC4=O)cc3[nH]2)c1N [Example 4-25-015, 1-[2-[5-amino-1-[2-fluoro-4-(2-fluorophenoxy)-6-methylphenyl]pyrazole-4-carbonyl]-5-(difluoromethoxy)-1H-indol-6-yl]pyrrolidin-2-one] | 4.9 | 44 | 8.2 |
| Cc1cc(Oc2ccccc2F)ncc1-n1ncc(C(=O)c2cc3cc(OCC(F)F)c(N4CCOC4=O)cc3[nH]2)c1N [Example 4-25-016, 3-{2-{5-amino-1-[6-(2-fluorophenoxy)-4-methylpyridin-3-yl]pyrazole-4-carbonyl}-5-(2,2-difluoroethoxy)-1H-indol-6-yl}-1,3-oxazolidin-2-one] | 0.48 | 13 | 1.5 |
| Cc1cc(Oc2ccccc2F)cc(F)c1-n1ncc(C(=O)c2cc3cc(OCC(F)F)c(N4CCOC4=O)cc3[nH]2)c1N [Example 4-25-017, 3-[2-[5-amino-1-[2-fluoro-4-(2-fluorophenoxy)-6-methylphenyl]pyrazole-4-carbonyl]-5-(2,2-difluoroethoxy)-1H-indol-6-yl]-1,3-oxazolidin-2-one] | 1.3 | 6.4 | 2.3 |
| Cc1cc(Oc2ccccc2F)ncc1-n1ncc(C(=O)c2cc3cc(OC(F)F)c(N4CCOC4=O)cc3[nH]2)c1N [Example 4-25-018, 3-[2-[5-amino-1-[6-(2-fluorophenoxy)-4-methylpyridin-3-yl]pyrazole-4-carbonyl]-5-(difluoromethoxy)-1H-indol-6-yl]-1,3-oxazolidin-2-one] | 0.72 | 20 | 1.7 |
| Cc1cc(Oc2ccccc2F)cc(F)c1-n1ncc(C(=O)c2cc3cc(OC(F)F)c(N4CCOC4=O)cc3[nH]2)c1N [Example 4-25-019, 3-[2-[5-amino-1-[2-fluoro-4-(2-fluorophenoxy)-6-methylphenyl]pyrazole-4-carbonyl]-5-(difluoromethoxy)-1H-indol-6-yl]-1,3-oxazolidin-2-one] | 5.2 | 43 | 13 |
| Cc1cc(Oc2ccccc2F)ncc1-n1ncc(C(=O)c2cc3cc(OCC(F)F)c(N4CCOCC4)cc3[nH]2)c1N [Example 4-25-020, {5-amino-1-[6-(2-fluorophenoxy)-4-methylpyridin-3-yl]pyrazol-4-yl}-[5-(2,2-difluoroethoxy)-6-morpholin-4-yl-1H-indol-2-yl]methanone] | 1.2 | 13 | 2.3 |
| Cc1cc(Oc2ccccc2F)cc(F)c1-n1ncc(C(=O)c2cc3cc(OCC(F)F)c(N4CCOCC4)cc3[nH]2)c1N [Example 4-25-021, [5-amino-1-[2-fluoro-4-(2-fluorophenoxy)-6-methylphenyl]pyrazol-4-yl]-[5-(2,2-difluoroethoxy)-6-morpholin-4-yl-1H-indol-2-yl]methanone] | 2.1 | 16 | 4.6 |
